Laboratory results from patent US6683162B2, “Targeted alpha particle therapy using actinium-255 conjugates” (Sloan Kettering Institute of Cancer Research, priority 2000, dated 2004).
Where two headings read alike, the source gives them in different places. Blank lines part the entries; values can stand above or below the compound they belong to.

Key:
[1] = Stability of 225Ac complexes of simple chelants: yttrium challenge and C-25 column elution
Method: Approximately, 200 μCi of ^225Ac solution was mixed with 10 μl of 50 mM of a ligand solution (such as DOTA) and pH was adjusted to about 6-6.5 with 33 μl of 3 M ammonium acetate. The reaction was kept in a water bath at 37° C. for completion in 2 hours. Reaction yield was monitored using 10 mM NaOH/9% NaCl solvent. Then, 10 μl of 77.5 mM Yttrium chloride solution was added to react with excess chelants for 30 minutes. There are two reasons for adding the 1.5 fold excess Yttrium: 1) if ^225Ac complex is not stable, Yttrium will replace ^225Ac c, and 2) Yttrium will react with chelants and make a final solution at metal excess. The excess metal will be held on a C-25 purification column and the radiometal complex can pass through the column. Therefore, the purified solution should contain a 1:1 metal to ligand ratio for the stability studies.
Each reaction solution was purified through a 1 ml C-25 column using a 5 ml of normal saline as eluting buffer. The first 2.5 ml elution was collected for the stability study. The activity in the eluate and the activity retaining on the column were measured using a dose calibrator 20 hours after purification.

[2] = Long-term in vitro stability of 225Ac-DOTA complex in 25% human serum (ITLC); assay type: in vitro ADME; conditions: 37° C., after 1 month
Method: 100% human serum (Sigma Chemical Co., St. Louis, Mo.), 100% mouse serum and 25% human serum albumin (Swiss Red Cross, Bern, Switzerland) was used to determine stability of the ^225 Ac complexes and conjugates. Aliquots in serum are mixed with diethylenetriaminepentaacetic acid (DPTA) (Aldrich Chemical Co., Milwaukee, Wis.). ITLC was utilized with either a 10 mM EDTA or 10 mM NaOH/9% NaCl solvent system and ITLC SG strips (Gelman Science Inc., Ann Arbor, Mich.) to assess the complexation and conjugation efficiency of the chelants. The ITLC strips were analyzed by gas ionization detection with an Ambis 4000 (Ambis, San Diego, Calif.).
Long-term in vitro stability of the ^225Ac-DOTA complex was tested by mixing 100 μl of the purified sample with 900 μl of 25% human serum. The ^225Ac-DOTA and solution was incubated at 37° C. and sampled periodically over the course of 30 days. The samples were analyzed by ITLC.

[3] = Liver accumulation of free 225Ac (acetate) injected into a mouse; assay type: in vivo
Method: In contrast to these two [225Ac]DOTA-IgG constructs, free ^225Ac (acetate) injected into a mouse rapidly accumulates in the liver: 40%, 40%, 65% at 24 h, 48 h, and 120 h, respectively.

[4] = system: human HL60 leukemia cells; conditions: Bi-213 construct, S.A. 8.4 Ci/g; cited from earlier work
[5] = system: leukemia cells; conditions: cumulative doses of up to 3.7 GBq (100 mCi); cited from earlier work
[6] = after yttrium addition, C-25 column

Compound: O=C(O)CN1CCCN(CC(=O)O)CCN(CC(=O)O)CCCN(CC(=O)O)CC1 [TETA]
stability of 225Ac complex (all 225Ac retained on the column) [1, 6]: unstable

Compound: O=C(O)CCN1CCN(CCC(=O)O)CCN(CCC(=O)O)CCN(CCC(=O)O)CC1 [DOTPA]
stability of 225Ac complex (all 225Ac retained on the column) [1, 6]: unstable

Compound: O=C([O-])CN1CCN(CC(=O)[O-])CCN(CC(=O)[O-])CCN(CC(=O)[O-])CC1.[225Ac+3] [225Ac-DOTA]
percentage of 225Ac activity eluted from the column ([1]; after […] excess yttrium, 1 ml C-25 column, normal saline, activity measured 20 hours after purification): 98.7%
metal remains complexed [2]: 85%

Compound: O=C(O)CCN1CCCN(CCC(=O)O)CCN(CCC(=O)O)CCCN(CCC(=O)O)CC1 [TETPA]
stability of 225Ac complex (all 225Ac retained on the column) [1, 6]: unstable

stability of 225Ac complex (all 225Ac retained on the column) [1]: unstable
Compound: O=C(O)CN(CCN(CC(=O)O)CC(=O)O)CCN(CC(=O)O)CC(=O)O (225Ac complex, metal not drawn) [DTPA]

Compound: CC(=O)[O-].CC(=O)[O-].CC(=O)[O-].[225Ac+3] [free 225Ac (acetate)]
accumulation in the liver ([3]; 24 h): 40%
accumulation in the liver ([3]; 48 h): 40%
accumulation in the liver ([3]; 120 h): 65%

Compound: [Bi-213]HuM195: 213Bi alpha-particle emitting HuM195 antibody construct, comparator
LD50 [4]: 200,000 pCi/mL
tumorocidal activity for leukemia cells [5]: major tumorocidal activity
